Columns and labels:
[1] = test system: A549-ACE2 infected with SARS-CoV-2; experiment: cell count relative to DMSO; higher = less toxic; settings: 24 h
[2] = test system: Caco-2; experiment: cell viability relative to DMSO; higher = less toxic; settings: 72 h
[3] = test system: HepG2; experiment: as above; settings: 72 h
[4] = test system: U2OS; experiment: as above; settings: 72 h
[5] = test system: Vero E6; experiment: as above; settings: 72 h
[6] = test system: A549-ACE2 infected with SARS-CoV-2; experiment: SARS-CoV-2 infection rate relative to DMSO; higher = more infection; settings: 24 h
[7] = test system: A549-ACE2; experiment: drug-induced phospholipidosis relative to tamoxifen; higher = more phospholipidosis
[8] = test system: A549-ACE2 infected with SARS-CoV-2; experiment: morphology score (similarity to uninfected cells); higher = more like uninfected cells; settings: 24 h
[9] = test system: HepG2; experiment: relative viability EC50 (midpoint between 100% and the lowest measured viability); higher = less toxic; settings: 72 h
[10] = test system: U2OS; experiment: as above; settings: 72 h
[11] = test system: Vero E6; experiment: as above; settings: 72 h
[12] = test system: Caco-2; experiment: drug sensitivity score (DSS) for viability; higher = more toxic; extreme values may be limits of the assay; settings: 72 h
[13] = test system: HepG2; experiment: as above; settings: 72 h
[14] = test system: U2OS; experiment: as above; settings: 72 h
[15] = test system: Vero E6; experiment: as above; settings: 72 h
[16] = test system: Calu-3; experiment: cell viability relative to DMSO; higher = less toxic; settings: 72 h
[17] = test system: A549-ACE2; experiment: phospholipidosis EC50; higher = less potent phospholipidosis inducer
[18] = test system: Caco-2; experiment: relative viability EC50 (midpoint between 100% and the lowest measured viability); higher = less toxic; settings: 72 h
[19] = test system: Calu-3; experiment: as above; settings: 72 h
[20] = test system: Calu-3; experiment: drug sensitivity score (DSS) for viability; higher = more toxic; extreme values may be limits of the assay; settings: 72 h

CN1C(=O)/C(=C2/C(=O)Nc3ccccc32)c2ccccc21 [meisoindigo]
Settings	SARS-CoV-2 infection rate, [6] [%]	cell count, [1] [%]	cell viability, [2] [%]	cell viability, [3] [%]	cell viability, [4] [%]	cell viability, [5] [%]	morphology score, [8]
1 nM	–	–	94.4	96.1	98	104	–
10 nM	–	–	104	101	102	102	–
0.1 µM	103	101	–	–	–	–	-0.25
100 nM	–	–	93.1	90.6	97.4	98.8	–
0.3 µM	103	102	–	–	–	–	-0.21
1 µM	102	98	–	–	–	–	-0.24
1000 nM	–	–	87.2	75.5	99	93.7	–
3 µM	97	101	–	–	–	–	-0.12
10000 nM	–	–	73.1	49	90.1	47.7	–

drug-induced phospholipidosis [%], [7]
Settings	0.3 µM	0.833333 µM	3.33333 µM	6.66667 µM	10 µM	30 µM
24 h	-2.39	-5.22	-2.5	-1.79	–	6.15
48 h	-0.22	-2.93	-2.52	0.92	–	4.45
72 h	0.716	-2.02	-1.09	1.04	9.76	5.86

Settings	drug sensitivity score	relative viability EC50 [µM]
[9]	–	0.869
[10]	–	> 10
[11]	–	2.18
[12]	2.2	–
[13]	5.6	–
[14]	0	–
[15]	3.8	–

CC(Cc1ccccc1)NCCC(c1ccccc1)c1ccccc1 (stereo unspecified) [prenylamine]
Settings	SARS-CoV-2 infection rate [%]	cell count [%]	cell viability [%]	morphology score	phospholipidosis EC50 [µM]
[1], 0.3 µM	–	103	–	–	–
[1], 3 µM	–	119	–	–	–
[1], 10 µM	–	123	–	–	–
[1], 30 µM	–	19	–	–	–
[2], 1 nM	–	–	112	–	–
[2], 10 nM	–	–	101	–	–
[2], 100 nM	–	–	93.6	–	–
[2], 1000 nM	–	–	100	–	–
[2], 10000 nM	–	–	87.1	–	–
[3], 1 nM	–	–	110	–	–
[3], 10 nM	–	–	110	–	–
[3], 100 nM	–	–	101	–	–
[3], 1000 nM	–	–	107	–	–
[3], 10000 nM	–	–	64.5	–	–
[4], 1 nM	–	–	97.2	–	–
[4], 10 nM	–	–	94.7	–	–
[4], 100 nM	–	–	97.3	–	–
[4], 1000 nM	–	–	100	–	–
[4], 10000 nM	–	–	85.7	–	–
[5], 1 nM	–	–	103	–	–
[5], 10 nM	–	–	110	–	–
[5], 100 nM	–	–	102	–	–
[5], 1000 nM	–	–	102	–	–
[5], 10000 nM	–	–	89.3	–	–
[6], 0.3 µM	108	–	–	–	–
[6], 3 µM	47	–	–	–	–
[6], 10 µM	6	–	–	–	–
[6], 30 µM	43	–	–	–	–
[8], 0.3 µM	–	–	–	-0.03	–
[8], 3 µM	–	–	–	0.78	–
[8], 10 µM	–	–	–	0.92	–
[8], 30 µM	–	–	–	-0.09	–
[16], 1 nM	–	–	103	–	–
[16], 10 nM	–	–	106	–	–
[16], 100 nM	–	–	95.3	–	–
[16], 1000 nM	–	–	106	–	–
[16], 10000 nM	–	–	17.9	–	–
[17], 24 h	–	–	–	–	3.65
[17], 48 h	–	–	–	–	4.62
[17], 72 h	–	–	–	–	6.27

drug-induced phospholipidosis [%], [7]
Settings	0.3 µM	0.833333 µM	3.33333 µM	6.66667 µM	10 µM
24 h	2.14	1.61	44.8	88.2	97.4
48 h	3.35	0.12	33.5	85	103
72 h	3.19	2.37	29.7	74.3	100

Settings	drug sensitivity score	relative viability EC50 [µM]
[10]	–	> 10
[11]	–	> 10
[12]	0.1	–
[13]	1.3	–
[14]	0.2	–
[15]	0	–
[18]	–	> 10
[19]	–	3.51
[20]	4.1	–

O=C(NCc1ccccc1)c1csc(Nc2ccncn2)n1 [thiazovivin]
Settings	SARS-CoV-2 infection rate, [6] [%]	cell count, [1] [%]	cell viability, [2] [%]	cell viability, [3] [%]	cell viability, [4] [%]	cell viability, [5] [%]	cell viability, [16] [%]	morphology score, [8]
1 nM	–	–	95.1	90.1	105	101	102	–
10 nM	–	–	96.8	97.8	100	101	95.5	–
0.1 µM	98	115	–	–	–	–	–	0.31
100 nM	–	–	97.3	101	100	99.1	109	–
0.3 µM	101	108	–	–	–	–	–	0.18
1 µM	98	90	–	–	–	–	–	0.16
1000 nM	–	–	100	93.8	93.9	88.7	126	–
3 µM	108	88	–	–	–	–	–	-0.1
10000 nM	–	–	88.4	73.9	85.9	64.7	138	–

drug-induced phospholipidosis [%], [7]
Settings	0.3 µM	0.833333 µM	3.33333 µM	6.66667 µM	10 µM	30 µM
24 h	-0.85	-1.1	-1.59	-0.13	1.72	4.97
48 h	-1.39	-3.9	-3.92	-1.45	-1.05	3.79
72 h	-0.652	-4.81	-3.84	-1.69	1.23	–

Settings	drug sensitivity score	relative viability EC50 [µM]
[10]	–	> 10
[12]	0	–
[13]	1.9	–
[14]	0.6	–
[15]	3.3	–
[18]	–	> 10
[19]	–	> 10
[20]	0	–

CN(C)C/C=C(/c1ccc(Br)cc1)c1cccnc1 [zimelidine]
cell viability [%]
Settings	[2]	[3]	[4]	[5]	[16]
1 nM	100	103	89.6	101	99.7
10 nM	98.9	97.8	97.5	100	107
100 nM	90.6	102	91.3	102	96.6
1000 nM	93.6	94.2	100	96.5	99.2
10000 nM	101	102	90.3	100	93

Settings	drug sensitivity score	relative viability EC50 [µM]
[9]	–	> 10
[10]	–	> 10
[11]	–	> 10
[12]	0	–
[13]	0	–
[14]	0	–
[15]	0	–
[18]	–	> 10
[19]	–	> 10
[20]	0	–
